Test results published in patent publication US5032599A, “N-(pyrrol-l-yl)pyridinamines” (Hoechst-Roussel Pharmaceuticals Inc., priority 1988, dated 1991).
Counter-ions that a name gives are not always drawn.

Test system: Scopolamine Induced Memory Deficit
Test: Dark Avoidance Assay (reversal of scopolamine induced memory deficit)
Assay type: in vivo
Settings: mice, retest after 24 hours
Description: Dark Avoidance Asssay In this assay mice are tested for their ability to remember an unpleasant stimulus for a period of 24 hours. A mouse is placed in a chamber that contains a dark compartment; a strong incandescent light drives it to the dark compartment, where an electric shock is administered through metal plates on the floor. The animal is removed from the testing apparatus and tested again, 24 hours later, for the ability to remember the electric shock. If scolopamine, an anticholinergic that is known to cause memory impairment, is administered before an animal's initial exposure to the test chamber, the animal re-enters the dark compartment shortly after being placed in the test chamber 24 hours later. This effect of scopolamine is blocked by an active test compound, resulting in a greater interval before re-entry into the dark compartment. The results for an active compound are expressed as the percent of a group of animals in which the effect of scopolamine is blocked, as manifested by an increased interval between being placed in the test chamber and re-entering the dark compartment.

| SMILES | % of Animals With Scopolamine Induced Memory Deficit Reversed (2.5 mg/kg by body weight) | % of Animals With Scopolamine Induced Memory Deficit Reversed (5.0 mg/kg by body weight) | other results |
| --- | --- | --- | --- |
| CN(c1ccncc1)n1cccc1.Cl [N-Methyl-N-(1H-pyrrol-1-yl)-4-pyridinamine hydrochloride] | 43% |  |  |
| c1ccn(Nc2ccncc2)c1 [N-(1H-Pyrrol-1-yl)-4-pyridinamine] |  |  | % of Animals With Scopolamine Induced Memory Deficit Reversed (0.63 mg/kg by body weight): 21% |
| CN(c1ccncc1)n1cccc1C=O [1-[N-Methyl-N-(4-pyridinyl)]aminopyrrole-2-carboxaldehyde maleate] |  |  | % of Animals With Scopolamine Induced Memory Deficit Reversed (1.25 mg/kg by body weight): 60% |
| CC[C@@H]1C(=O)OC[C@@H]1Cc1cncn1C [Pilocarpine, reference compound] |  | 23% |  |
| CC(O)c1cccn1N(C)c1ccncc1 (stereo not drawn) [α-methyl-1-[[N-(4-pyridinyl)-N-methyl]amino]-1H-pyrrole-2-methanol maleate] |  | 19% |  |
| CCN(c1ccncc1)n1cccc1Cl.Cl [N-(2-Chloro-1H-pyrrol-1-yl)-N-ethyl-4-pyridinamine hydrochloride] | 33% |  |  |
